≈ marks a conversion by molar mass, not a printed value.
Conditions: buffer; pH 7.4; 200.0 µM

Q: For Cc1cccc(NC(=O)CSc2n[nH]c(-c3cccnc3)n2)c1, which solubility kinetic is on record?
A: Its solubility kinetic is over 0.0488 mg/mL.

Q: For O/N=C1\CCCc2ccc3ccccc3c21, which solubility kinetic is on record?
A: Its solubility kinetic is 0.0045 mg/mL (≈ 21.3 µM).

Q: Which solubility kinetic does the source give for Cc1cc(NC(=O)CSc2nc3c(cc2C#N)CCC3)no1 here?
A: The solubility kinetic was 0.0014 mg/mL (≈ 4.45 µM).

Q: Which solubility kinetic does the source give for O=c1nc(-c2ccccc2)nc(-c2ccccc2)[nH]1 here?
A: The solubility kinetic was 0.0229 mg/mL (≈ 91.9 µM).

Q: For Cc1ccccc1OCCn1c(=S)[nH]c2ccccc21, which solubility kinetic is on record?
A: Its solubility kinetic is 0.0005 mg/mL (≈ 1.76 µM).

Q: With CC1CN(CCc2ccccc2)C(C)C/C1=N/O (stereo not drawn) as the compound, how does the solubility kinetic read?
A: The solubility kinetic was 0.032 mg/mL (≈ 130 µM).

Q: Which solubility kinetic does the source give for O=C(Nc1ccccc1)c1cc2ccc3ccccc3c2s1 here?
A: The solubility kinetic was under 0.0006 mg/mL.

Q: Which solubility kinetic does the source give for COc1ccc(NC(=O)CCCC(=O)c2ccccc2)cc1 here?
A: Its solubility kinetic is 0.0071 mg/mL (≈ 23.9 µM).

Q: For Cc1nc(N2CCN(Cc3ccc4c(c3)OCO4)CC2)[nH]c(=O)c1C, which solubility kinetic is on record?
A: Its solubility kinetic is over 0.0514 mg/mL.

Q: For CC1Oc2ccccc2N(CC(=O)N2CCCC2)C1=O (stereo not drawn), which solubility kinetic is on record?
A: The solubility kinetic was over 0.0411 mg/mL.

Q: For Cc1cccc(S(=O)(=O)Nc2ccc(S(=O)(=O)Nc3nccs3)cc2)c1, which solubility kinetic is on record?
A: The solubility kinetic was over 0.0614 mg/mL.

Q: For Cc1cc(C(=O)N2CCC(C(N)=O)CC2)c(C)o1, which solubility kinetic is on record?
A: The solubility kinetic was over 0.0375 mg/mL.

Q: With NC(Cc1ccc(OC(F)F)cc1)C(=O)O (stereo not drawn) as the compound, how does the solubility kinetic read?
A: Its solubility kinetic is 0.0327 mg/mL (≈ 141 µM).

Q: Which solubility kinetic does the source give for Cc1cccc(NC(=O)Nc2ccc(Cl)cc2)n1 here?
A: The solubility kinetic was under 0.0002 mg/mL.

Q: For Cc1cccnc1NC(=S)Nc1ccc(Cl)c(Cl)c1, which solubility kinetic is on record?
A: Its solubility kinetic is 0.0037 mg/mL (≈ 11.9 µM).

Q: With Cc1ccc(NC(=O)COC(=O)c2cc(=O)c3ccccc3o2)c(Br)c1 as the compound, how does the solubility kinetic read?
A: Its solubility kinetic is over 0.0624 mg/mL.

Q: Which solubility kinetic does the source give for COc1ccccc1OCC(=O)Nc1ccncc1 here?
A: Its solubility kinetic is over 0.0387 mg/mL.

Q: With O=C(NCCCN1CCCC1=O)C1CCCO1 (stereo not drawn) as the compound, how does the solubility kinetic read?
A: Its solubility kinetic is 0.0352 mg/mL (≈ 146 µM).

Q: Which solubility kinetic does the source give for N#Cc1ccc(OCC(=O)NCCN2CCOCC2)cc1 here?
A: The solubility kinetic was over 0.0434 mg/mL.

Q: For CC(Sc1nc2ncc(Cl)cc2[nH]1)C(=O)Nc1ccc(C(N)=O)cc1 (stereo not drawn), which solubility kinetic is on record?
A: The solubility kinetic was 0.0093 mg/mL (≈ 24.7 µM).

Q: Which solubility kinetic does the source give for COC(=O)CC(c1ccc(C#N)cc1)n1c(C)ccc1C (stereo not drawn) here?
A: The solubility kinetic was over 0.0424 mg/mL.

Q: Which solubility kinetic does the source give for COc1ccc(C(=O)NCC(=O)N2CCCCC2)cc1OC here?
A: Its solubility kinetic is over 0.046 mg/mL.

Q: With O=C1NC(=O)N(Cc2ccccc2)C1=O as the compound, how does the solubility kinetic read?
A: The solubility kinetic was over 0.0306 mg/mL.

Q: Which solubility kinetic does the source give for O=C(Nc1cccc(Cl)c1)OC1CN2CCC1CC2 (stereo not drawn) here?
A: The solubility kinetic was 0.0036 mg/mL (≈ 12.8 µM).

Q: For CCN(CC(=O)Nc1ccc2c(c1)OCCO2)C(=O)c1ccc(CS(C)(=O)=O)cc1, which solubility kinetic is on record?
A: The solubility kinetic was over 0.0649 mg/mL.

Q: For CCCCCCCCN=Cc1c(O)[nH]c(=O)[nH]c1=O, which solubility kinetic is on record?
A: The solubility kinetic was 0.001 mg/mL (≈ 3.74 µM).

Q: For O/N=C1\CCSc2ccc(F)cc21, which solubility kinetic is on record?
A: Its solubility kinetic is 0.0234 mg/mL (≈ 119 µM).

Q: Which solubility kinetic does the source give for O=C(CNC(=O)c1ccc(Cl)cc1)OCN1C(=O)c2ccccc2C1=O here?
A: The solubility kinetic was 0.0077 mg/mL (≈ 20.7 µM).

Q: Which solubility kinetic does the source give for O=C(c1cccc2c1-c1ccccc1C2)N1CCCCC1 here?
A: Its solubility kinetic is over 0.0416 mg/mL.

Q: With CCc1nnc(NC(=O)c2cc(Cl)ccn2)s1 as the compound, how does the solubility kinetic read?
A: Its solubility kinetic is over 0.0403 mg/mL.

Q: Which solubility kinetic does the source give for CC1(C)Oc2ccc(C(=O)NC3CCCCC3)cc2N(CC#N)C1=O here?
A: Its solubility kinetic is 0.0129 mg/mL (≈ 37.8 µM).

Q: With N#CCOc1ccccc1/C=C/c1nc2ccccc2c(=O)[nH]1 as the compound, how does the solubility kinetic read?
A: Its solubility kinetic is 0.005 mg/mL (≈ 16.5 µM).

Q: Which solubility kinetic does the source give for CC(C)c1nc(SCC(=O)NC2CCCCC2)c2ccccc2n1 here?
A: Its solubility kinetic is 0.0018 mg/mL (≈ 5.24 µM).

Q: With Cc1cc(C)c2c(=O)c(/C=C3\NC(=S)NC3=O)coc2c1 as the compound, how does the solubility kinetic read?
A: The solubility kinetic was 0.0008 mg/mL (≈ 2.66 µM).

Q: Which solubility kinetic does the source give for CC(OC(=O)CCCC(=O)Nc1ccc(F)cc1)C(=O)c1ccccc1 (stereo not drawn) here?
A: Its solubility kinetic is 0.0447 mg/mL (≈ 125 µM).

Q: With COc1cccc(C(=O)NCc2ccc3[nH]c(C)cc3c2)c1 as the compound, how does the solubility kinetic read?
A: Its solubility kinetic is 0.0158 mg/mL (≈ 53.7 µM).

Q: Which solubility kinetic does the source give for O=C(COC(=O)CNS(=O)(=O)c1cc(C(F)(F)F)ccc1Cl)NC1CC1 here?
A: Its solubility kinetic is over 0.0622 mg/mL.

Q: For Cc1ccnc(S(=O)(=O)Cc2ccc([N+](=O)[O-])cc2)n1, which solubility kinetic is on record?
A: The solubility kinetic was over 0.044 mg/mL.

Q: For Cc1cccc(C)c1OCC(=O)Nc1ccncc1, which solubility kinetic is on record?
A: The solubility kinetic was 0.0218 mg/mL (≈ 85.1 µM).

Q: For O=C(Nc1ccc(F)cc1)C(=O)C1C(=O)Nc2ccccc21 (stereo not drawn), which solubility kinetic is on record?
A: Its solubility kinetic is over 0.0447 mg/mL.

Q: With COc1ccc(C2CN(C)CC2C(=O)c2ccc(C)cc2)cc1Cl (stereo not drawn) as the compound, how does the solubility kinetic read?
A: Its solubility kinetic is 0.0401 mg/mL (≈ 117 µM).

Q: For Cc1cc(NS(=O)(=O)c2ccc(NC(=O)c3ccccc3F)cc2)no1, which solubility kinetic is on record?
A: Its solubility kinetic is over 0.0563 mg/mL.

Q: Which solubility kinetic does the source give for O=C(O)c1cc(O)ccc1NC(=O)C(c1ccccc1)c1ccccc1 here?
A: Its solubility kinetic is over 0.0521 mg/mL.

Q: Which solubility kinetic does the source give for COc1ccc(CC(=O)NCCc2ccc(OC)c(OC)c2)cc1 here?
A: The solubility kinetic was over 0.0494 mg/mL.

Q: Which solubility kinetic does the source give for COc1cc2c(cc1NC(=O)COCC(=O)O)oc1ccccc12 here?
A: The solubility kinetic was over 0.0494 mg/mL.

Q: Which solubility kinetic does the source give for Cc1ccc(Cn2cccc(NS(C)(=O)=O)c2=O)cc1 here?
A: Its solubility kinetic is over 0.0439 mg/mL.

Q: For COC(=O)c1cccc(NC(=O)CCNC(=O)c2ccco2)c1, which solubility kinetic is on record?
A: The solubility kinetic was over 0.0474 mg/mL.

Q: Which solubility kinetic does the source give for Cc1cnc(NC(=O)[C@H](C)N2C(=O)C3CCCCC3C2=O)s1 (stereo partly drawn) here?
A: The solubility kinetic was over 0.0482 mg/mL.
